{"source": "paper PMC8765320", "about": "“Identification of a Proteasome-Targeting Arylsulfonamide with Potential for the Treatment of Chagas’ Disease” (Antimicrobial Agents and Chemotherapy, 2022)", "key": {"[1]": {"test_system": "T. cruzi amastigotes within Vero cells", "test": "Drug sensitivity assay against T. cruzi-infected Vero cells (intracellular amastigotes)", "type": "cell-based, Trypanosoma cruzi", "settings": "for EC50: Trypanosoma cruzi, Vero", "method": "The clonal Leishmania donovani cell line LdBOB (derived from MHOM/SD/62/1S-CL2D) was grown as either promastigotes or axenic amastigotes in media specific for each developmental stage, as previously described ([32]). T. cruzi epimastigotes from the Silvio strain (MHOM/BR/78/Silvio; clone X10/7A [33]) were grown at 28°C in RTH/FBS (RPMI 1640 medium supplemented with Trypticase, hemin, HEPES, and 10% heat-inactivated fetal calf serum (FCS) [Fisher Scientific]) ([34]). Bloodstream form T. brucei “single marker” S427 (T7RPOL TETR NEO) were cultured in the presence of G418 (15 μg ml^−1) at 37°C in HMI9-T media in the presence of 5% CO2. HepG2 cells (ECACC 85011430) were obtained from European Collection of Authenticated Cell Culture (ECACC). Cells were maintained in full growth medium (minimal essential medium [MEM] with GlutaMAX (Thermo Fisher), supplemented with 1% MEM nonessential amino acids (Sigma) and 10% heat-inactivated FBS and cultured at 37°C in the presence of 5% CO2. Cells were passaged twice weekly by detaching adherent cells with 0.05% trypsin/EDTA (Sigma) and diluted into fresh media. Cells were never grown beyond 80% confluence. Vero cells (African green monkey kidney cells; ECCAC 84113001) were maintained at 37°C, 5% CO2 in Dulbecco modified Eagle medium (DMEM; Lonza) supplemented with 10% FCS and subcultured every 2 days. T. cruzi metacyclic trypomastigotes were obtained from late-log-phase epimastigote cultures (initial inoculum, 10^6 ml^−1) after ca. 7 to 10 days at 28°C in RTH/FBS. Trypomastigote-rich cultures were incubated with Vero cells overnight at 37°C and 5% CO2 in DMEM/10% FCS. The following day, extracellular parasites were removed by washing the Vero cell monolayer three times. Infected monolayers were maintained at 37°C and in 5% CO2, DMEM/10% FCS was replaced every 48 h until the trypomastigotes reemerged from the Vero cells ([9]).\nDrug sensitivity assays against T. cruzi-infected Vero cells were carried out as previously described ([37]); however, in this instance, assays were carried out in 96-well plates. Data were processed using GRAFIT (Erithacus software) and fitted to a two-parameter equation, as described above."}, "[2]": {"test_system": "L. donovani promastigotes", "test": "L. donovani promastigote drug sensitivity assay", "type": "cell-based, Leishmania donovani", "settings": "for EC50: Leishmania donovani", "method": "(§1) L. donovani promastigote ([35]), axenic amastigote ([25]), and T. brucei bloodstream form ([36]) drug sensitivity assays were carried out as previously described. HepG2 monolayers were washed twice in PBS, detached with 0.05% trypsin/EDTA, and then diluted with fully supplemented MEM growth medium. Cells were pelleted at 80 × g for 5 min and resuspended in fully supplemented growth medium. Cells were seeded into 96-well plates (5 × 10^4/well) and allowed to adhere prior to exposure to test compounds. Plates were incubated at 37°C in the presence of 5% CO2 for 72 h. After incubation, resazurin (20 μl of a 2.5-mg/ml^−1 stock solution) was added to each well, followed by incubation for a further 2 h prior to fluorescence being read as described above."}, "HepG2 cells": {"test_system": "HepG2 cells", "test": "HepG2 drug sensitivity assay (resazurin)", "type": "cell-based", "settings": "Homo sapiens; Mammalian HepG2; 72 h; weighted mean, n ≥ 3; read-out: Mean compound 1 EC50 ± SD", "method": "as §1"}, "[3]": {"test_system": "mitochondrial T. cruzi malic enzyme (mTcME)", "test": "Thermal proteome profiling, mTcME", "type": "binding, Trypanosoma cruzi", "settings": "lysate, compound at 10× EC50", "method": "Aliquots of each lysate were then incubated at designated temperatures (33 to 69°C) and then, for each temperature, insoluble (denatured) proteins were removed. The resulting soluble protein samples were reduced, alkylated, and digested with trypsin prior to derivatization with tandem mass tags. Pooled peptides were fractionated by high-pressure liquid chromatography and analyzed by LC/MS-MS prior to identification and quantitation. The melting points of identified proteins were then established using the TPP software package. Full melt curves were established for 6,771 proteins, representing 39.4% coverage of the T. cruzi proteome.\nT. cruzi (X10/7 strain) mid-log-phase epimastigotes (∼1 × 10^10) were harvested by centrifugation (1,912 × g, 15 min, 4°C) and washed with ice-cold PBS (1,912 × g, 5 min, 4°C); finally, the cell pellet was resuspended in 8 ml of ice-cold lysis buffer (1 mM EDTA, 1 mM dithiothreitol [DTT], 100 μM TLCK [Nα-p-tosyl-L-lysine chloromethyl ketone], and 1× Roche EDTA-free COmplete protease inhibitor cocktail in 50 mM potassium phosphate buffer [pH 7.4]). […] The resulting lysate was centrifuged (100,000 × g, 20 min, 4°C), the supernatant was collected, and the protein concentration was determined using a Bio-Rad protein assay. […]"}}, "note": "Like-named read-outs stand apart in the source and are kept apart here."}
{"smiles": "COc1ccc(NS(=O)(=O)c2cc(-c3cc(C)n[nH]3)ccc2C)cc1OC", "note": "[Compound 1]", "values": [{"measurement": "EC50", "setting": "[1]; T. cruzi Intra-Vero, weighted mean, n ≥ 3, read-out: Mean compound 1 EC50 ± SD", "result": "1300 ± 200", "unit": "nM"}, {"measurement": "EC50", "setting": "[1]; in Vero cells, cell line ME OE, (*) one biological replicate, read-out: EC50 values", "result": "800 ± 70", "unit": "nM"}, {"measurement": "EC50", "setting": "[1]; in Vero cells, cell line RES 1, read-out: EC50 values", "result": "10000 ± 5000", "unit": "nM"}, {"measurement": "EC50", "setting": "[1]; in Vero cells, cell line RES 5, read-out: EC50 values", "result": "> 50000", "unit": "nM"}, {"measurement": "EC50", "setting": "[1]; in Vero cells, cell line Wild-type, read-out: EC50 values", "result": "1000 ± 200", "unit": "nM"}, {"measurement": "EC50", "setting": "[1]; in Vero cells, cell line β5 OE rescue R1, (*) one biological replicate, read-out: EC50 values", "result": "3000 ± 200", "unit": "nM"}, {"measurement": "EC50", "setting": "[1]; in Vero cells, cell line β5 OE, read-out: EC50 values", "result": "1000 ± 200", "unit": "nM"}, {"measurement": "EC50", "setting": "[1]; read-out: EC50 values, in Vero cells, cell line β4 F24L/I29M", "result": "> 23000", "unit": "nM"}, {"measurement": "EC50", "setting": "[1]; read-out: EC50 values, in Vero cells, cell line β5 D225N-OE, (*) one biological replicate", "result": "12000 ± 1400", "unit": "nM"}, {"measurement": "fold change versus WT", "setting": "[1]; in Vero cells, cell line ME OE", "result": 1, "unit": "fold"}, {"measurement": "fold change versus WT", "setting": "[1]; in Vero cells, cell line RES 1", "result": 8, "unit": "fold"}, {"measurement": "fold change versus WT", "setting": "[1]; in Vero cells, cell line RES 5", "result": "> 42", "unit": "fold"}, {"measurement": "fold change versus WT", "setting": "[1]; in Vero cells, cell line Wild-type", "result": 1, "unit": "fold"}, {"measurement": "fold change versus WT", "setting": "[1]; in Vero cells, cell line β4 F24L/I29M", "result": "> 19", "unit": "fold"}, {"measurement": "fold change versus WT", "setting": "[1]; in Vero cells, cell line β5 D225N-OE", "result": 10, "unit": "fold"}, {"measurement": "fold change versus WT", "setting": "[1]; in Vero cells, cell line β5 OE", "result": 1, "unit": "fold"}, {"measurement": "fold change versus WT", "setting": "[1]; in Vero cells, cell line β5 OE rescue R1", "result": 2, "unit": "fold"}, {"measurement": "fold change versus WT", "setting": "[2]; L. donovani cell line cLdME OE", "result": "="}, {"measurement": "fold change versus WT", "setting": "[2]; L. donovani compound 2-resistant line (G197S in β5 subunit)", "result": 260, "unit": "fold"}, {"measurement": "EC99 in promastigotes", "setting": "[2]; L. donovani promastigotes", "result": 300, "unit": "nM"}, {"measurement": "EC50", "setting": "[2]; read-out: Compound 1 EC50 values, L. donovani cell line Compound 2 RES III (G197S in β5 subunit)", "result": "26000 ± 4000", "unit": "nM"}, {"measurement": "EC50", "setting": "[2]; L. donovani cell line Wild-type, read-out: Compound 1 EC50 values", "result": "100 ± 5", "unit": "nM"}, {"measurement": "EC50", "setting": "[2]; L. donovani promastigote, weighted mean, n ≥ 3, read-out: Mean compound 1 EC50 ± SD", "result": "100 ± 5", "unit": "nM"}, {"measurement": "EC50", "setting": "HepG2 cells", "result": "23000 ± 3000", "unit": "nM"}, {"measurement": "impact on the thermal stability of mTcME", "setting": "[3]", "result": "no impact"}]}
